{"source": "patent US20250313533A1", "about": "“QUINOLINE CARBOXYLIC ACID ESTER COMPOUND AND PREPARATION METHOD AND USE THEREOF” (priority 2019, published 2025)", "key": {"[1]": {"tested_on": "pathogenic bacteria causing black shank in potatoes", "experiment": "In vitro bactericidal activity, black shank in potatoes", "format": "cell-based", "conditions": "read-out: inhibitory rate"}, "[2]": {"tested_on": "pathogenic bacteria causing bacterial wilt in cassava", "experiment": "organism not typed", "format": "cell-based", "conditions": "read-out: inhibitory rate"}, "[3]": {"tested_on": "pathogenic bacteria causing stem rot in sweet potatoes", "experiment": "In vitro bactericidal activity, stem rot in sweet potatoes", "format": "cell-based, dikia", "conditions": "read-out: inhibitory rate"}, "[4]": {"tested_on": "pathogenic bacteria causing bacterial angular leaf spot in cucumbers", "experiment": "In vitro bactericidal activity, bacterial angular leaf spot in cucumbers", "format": "cell-based, pseudomonas", "conditions": "read-out: inhibitory rate"}, "[5]": {"tested_on": "pathogenic bacteria causing black rot in Chinese cabbages", "experiment": "In vitro bactericidal activity, black rot in Chinese cabbages", "format": "cell-based, xanthomonas", "conditions": "Xanthomonas, read-out: inhibitory rate"}, "soft rot in lettuces": {"tested_on": "soft rot in lettuces", "experiment": "Field test for controlling soft rot in lettuces", "format": "in vivo, lettuce", "conditions": "7 days after the last application", "description": "(§1) In October 2019, tests were carried out in fields of Chinese cabbage, wild cabbage and lettuce in Tai'an, Shandong. The doses of the compounds 152 and 282 of the present disclosure (both prepared as dispersible granules with a mass fraction of 10%) used were 16.87 ga.i./hm^2 and 33.75 ga.i./hm^2, and the control agents used were 3% (by weight) wettable powder of zhongshengmycin and 33.5% (by weight) aqueous suspension of oxine-copper (both were commercially available). The dose of zhongshengmycin was 67.5 ga.i./hm^2, and the dose of oxine-copper was 337.5 ga.i./hm^2. Test and control agents were arranged in randomized blocks. Plot area was 15 m^2. Treatment was repeated 3 times. The route of application was spraying on stem and leaves. The application was performed 2 times in total at an interval of 7 days, and the efficacy investigation was performed 7 days after the last application. During the investigation, sampling was carried out at 5 points in each plot. Disease conditions of soft rot in Chinese cabbages, soft rot in lettuces and soft rot in wild cabbages were recorded according to the relevant technical standard of Pesticide Guidelines for the Field Efficacy Trials GB/T17980.114-2004, and the incidence rate of plants was calculated to further evaluate the control effect."}, "[6]": {"tested_on": "pathogenic bacteria causing fruit blotch in watermelons", "experiment": "In vitro bactericidal activity, fruit blotch in watermelons", "format": "cell-based, acidovorax", "conditions": "read-out: inhibitory rate"}, "[7]": {"tested_on": "fruit blotch in watermelons", "experiment": "whole plant or invertebrate", "conditions": "read-out: efficacy against fruit blotch in watermelons"}, "[8]": {"tested_on": "pathogenic bacteria causing bacterial wilt in tobacco", "experiment": "whole plant or invertebrate", "format": "cell-based, ralstonia", "conditions": "read-out: inhibitory rate"}, "[9]": {"tested_on": "bacterial wilt in tobacco", "experiment": "whole plant or invertebrate", "conditions": "Nicotiana tabacum, read-out: efficacy against bacterial wilt in tobacco"}, "black shank in potatoes": {"tested_on": "black shank in potatoes", "experiment": "Living crops in vivo protective activity, potatoes (root irrigation)", "conditions": "Solanum tuberosum, read-out: efficacy against black shank in potatoes", "description": "Root irrigation was carried out on the potatoes for tests according to the designed concentration of the agents. The dosage for each plant was 200 mL and was kept consistent (also for the control). The black shank bacteria were inoculated on the second day after the application. The results were investigated according to the disease condition."}, "[10]": {"tested_on": "pathogenic bacteria causing bacterial blight in rice", "experiment": "whole plant or invertebrate", "format": "cell-based, xanthomonas", "conditions": "read-out: inhibitory rate"}, "[11]": {"tested_on": "soft rot in Chinese cabbages", "experiment": "whole plant or invertebrate", "conditions": "48 h, read-out: efficacy against soft rot in Chinese cabbages"}, "cucumber seedlings": {"tested_on": "cucumber seedlings", "experiment": "Safety for plant growth after application", "format": "in vivo", "conditions": "dosage 200 ppm", "procedure,_shortened": "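Using pot-grown cucumber seedlings indoors, we recorded plant height growth rate together with chlorophyll content and leaf area following compound application.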"}, "[12]": {"tested_on": "pathogenic bacteria causing fire blight in pears", "experiment": "In vitro bactericidal activity, fire blight in pears", "format": "cell-based, erwinia", "conditions": "Erwinia, read-out: inhibitory rate"}, "bacterial blight in rice": {"tested_on": "bacterial blight in rice", "experiment": "whole plant or invertebrate", "conditions": "Oryza sativa, read-out: efficacy against bacterial blight in rice"}, "[13]": {"tested_on": "stem rot in sweet potatoes", "experiment": "whole plant or invertebrate", "conditions": "read-out: efficacy against stem rot in sweet potatoes"}, "[14]": {"tested_on": "soft rot in Chinese cabbages", "experiment": "Field test for controlling soft rot in Chinese cabbages", "format": "in vivo, Chinese cabbage", "conditions": "7 days after the last application", "description": "as §1"}, "[15]": {"tested_on": "indoor potted cucumber seedlings", "experiment": "Effect of improving growth and development of crops", "format": "in vivo", "set-up": "Rate of growth rate increase (%): concentration or dose not given beside the values", "conditions": "versus blank control", "procedure,_shortened": "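Indoor potted cucumber seedlings treated with compound; plant height and second-leaf length and width measured before and 14 days after application. Growth rate, leaf area and their percentage increases derived by formula; leaf chlorophyll content read with a SPAD meter.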"}, "[16]": {"tested_on": "soft rot in wild cabbages", "experiment": "Field test for controlling soft rot in wild cabbages", "format": "in vivo, wild cabbage", "conditions": "7 days after the last application", "description": "as §1"}, "[17]": {"conditions": "dose 16.87 g a.i./hm^2, 2 sprays"}, "[18]": {"conditions": "dose 33.75 g a.i./hm^2, 2 sprays"}}}
{"smiles": "CCOc1cc2c(cc1F)c(=O)c(C(=O)OCCOC)cn2C1CC1", "note": "[Compound 282, 2-methoxyethyl 1-cyclopropyl-6-fluoro-4-oxo-7-ethoxy-1,4-dihydroquinoline-3-carboxylate]", "values": [{"measurement": "inhibition at 1 ppm", "setting": "[1]; dosage 1 ppm", "value": "≥ 90", "unit": "%"}, {"measurement": "inhibition at 5 ppm", "setting": "[1]; dosage 5 ppm", "value": "≥ 90", "unit": "%"}, {"measurement": "inhibition at 1 ppm", "setting": "[2]", "value": "≥ 90", "unit": "%"}, {"measurement": "inhibition at 5 ppm", "setting": "[2]", "value": "≥ 90", "unit": "%"}, {"measurement": "inhibition at 1 ppm", "setting": "[3]; dosage 1 ppm", "value": "≥ 90", "unit": "%"}, {"measurement": "inhibition at 5 ppm", "setting": "[3]; dosage 5 ppm", "value": "≥ 90", "unit": "%"}, {"measurement": "inhibition at 1 ppm", "setting": "[4]; dosage 1 ppm", "value": "≥ 90", "unit": "%"}, {"measurement": "inhibition at 5 ppm", "setting": "[4]; dosage 5 ppm", "value": "≥ 90", "unit": "%"}, {"measurement": "inhibition at 1 ppm", "setting": "[5]; dosage 1 ppm", "value": "≥ 90", "unit": "%"}, {"measurement": "inhibition at 5 ppm", "setting": "[5]; dosage 5 ppm", "value": "≥ 90", "unit": "%"}, {"measurement": "Control effect (%)", "setting": "soft rot in lettuces; [17]", "value": 73, "unit": "%"}, {"measurement": "Control effect (%)", "setting": "soft rot in lettuces; [18]", "value": 85, "unit": "%"}, {"measurement": "inhibition at 1 ppm", "setting": "[6]; dosage 1 ppm", "value": "≥ 90", "unit": "%"}, {"measurement": "inhibition at 5 ppm", "setting": "[6]; dosage 5 ppm", "value": "≥ 90", "unit": "%"}, {"measurement": "pest or weed control at 5 ppm", "setting": "[7]", "value": "≥ 90", "unit": "%"}, {"measurement": "pest or weed control at 10 ppm", "setting": "[7]", "value": "≥ 90", "unit": "%"}, {"measurement": "inhibition at 1 ppm", "setting": "[8]", "value": "≥ 90", "unit": "%"}, {"measurement": "inhibition at 5 ppm", "setting": "[8]", "value": "≥ 90", "unit": "%"}, {"measurement": "pest or weed control at 5 ppm", "setting": "[9]", "value": "≥ 90", "unit": "%"}, {"measurement": "pest or weed control at 10 ppm", "setting": "[9]", "value": "≥ 90", "unit": "%"}, {"measurement": "pest or weed control at 5 ppm", "setting": "black shank in potatoes; dosage 5 ppm", "value": "≥ 90", "unit": "%"}, {"measurement": "pest or weed control at 10 ppm", "setting": "black shank in potatoes; dosage 10 ppm", "value": "≥ 90", "unit": "%"}, {"measurement": "inhibition at 1 ppm", "setting": "[10]", "value": "≥ 90", "unit": "%"}, {"measurement": "inhibition at 5 ppm", "setting": "[10]", "value": "≥ 90", "unit": "%"}, {"measurement": "pest or weed control at 5 ppm", "setting": "[11]", "value": "≥ 90", "unit": "%"}, {"measurement": "pest or weed control at 10 ppm", "setting": "[11]", "value": "≥ 90", "unit": "%"}, {"measurement": "safety for plant growth (discoloration, necrosis, wilt, malformation)", "setting": "cucumber seedlings", "value": "safe for plant growth"}, {"measurement": "inhibition at 1 ppm", "setting": "[12]; dosage 1 ppm", "value": "≥ 90", "unit": "%"}, {"measurement": "inhibition at 5 ppm", "setting": "[12]; dosage 5 ppm", "value": "≥ 90", "unit": "%"}, {"measurement": "pest or weed control at 5 ppm", "setting": "bacterial blight in rice", "value": "≥ 90", "unit": "%"}, {"measurement": "pest or weed control at 10 ppm", "setting": "bacterial blight in rice", "value": "≥ 90", "unit": "%"}, {"measurement": "pest or weed control at 5 ppm", "setting": "[13]", "value": "≥ 90", "unit": "%"}, {"measurement": "pest or weed control at 10 ppm", "setting": "[13]", "value": "≥ 90", "unit": "%"}, {"measurement": "Control effect (%)", "setting": "[14]; [17]", "value": 82, "unit": "%"}, {"measurement": "Control effect (%)", "setting": "[14]; [18]", "value": 90, "unit": "%"}, {"measurement": "Rate of chlorophyll content increase (%)", "setting": "[15]; 14 days after application", "value": 16, "unit": "%"}, {"measurement": "Rate of growth rate increase (%)", "setting": "[15]; plant height 14 days after application", "value": 12, "unit": "%"}, {"measurement": "Rate of leaf area increase (%)", "setting": "[15]; second leaf, 14 days after application", "value": 16, "unit": "%"}, {"measurement": "Control effect (%)", "setting": "[16]; [17]", "value": 80, "unit": "%"}, {"measurement": "Control effect (%)", "setting": "[16]; [18]", "value": 87, "unit": "%"}]}
